Read-outs that look alike come from different tables or passages of the source.
What was measured:
[1] = tested on: Polaromonas sp.-derived PobA (PoPobA), protocatechuic acid 5-hydroxylase, wild type, SEQ ID NO: 22; experiment: Reaction kinetic analysis of PoPobA; type: biochemical; conditions: 200 µM NADPH, 10 µM FAD, pH 7.9, 25° C., 340 nm
Description: By the same procedures, a target pRSF-PoPobA plasmid was obtained based on the gene sequence information of Polaromonas sp.-derived PobA (PoPobA) (SEQ ID NO: 7). The base sequences of primers 5 and 6 used are shown below.

[2] = tested on: Hydrogenophaga sp.-derived PobA (HyPobA), protocatechuic acid 5-hydroxylase, wild type, SEQ ID NO: 21; experiment: Reaction kinetic analysis of HyPobA; type: biochemical; conditions: 200 µM NADPH, 10 µM FAD, pH 7.9, 25° C., 340 nm
Description: By the same procedures, a target […] plasmid was obtained based on the gene sequence information of Hydrogenophaga sp.-derived PobA (HyPobA) (SEQ ID NO: 4). The base sequences of primers 3 and 4 used are shown below.

[3] = target: Pseudomonas aeruginosa-derived PobA (PaPobA), p-hydroxybenzoate hydroxylase, wild type, SEQ ID NO: 28 (Pseudomonas aeruginosa, UniProt P20586); experiment: Reaction kinetic analysis of PaPobA (comparison); conditions: PCA substrate (2 mM), 200 µM NADPH, 10 µM FAD, pH 7.9, 25° C., 340 nm
Pseudomonas aeruginosa-derived PobA (PaPobA), p-hydroxybenzoate hydroxylase, wild type, SEQ ID NO: 28, sequence (P20586 whole entry): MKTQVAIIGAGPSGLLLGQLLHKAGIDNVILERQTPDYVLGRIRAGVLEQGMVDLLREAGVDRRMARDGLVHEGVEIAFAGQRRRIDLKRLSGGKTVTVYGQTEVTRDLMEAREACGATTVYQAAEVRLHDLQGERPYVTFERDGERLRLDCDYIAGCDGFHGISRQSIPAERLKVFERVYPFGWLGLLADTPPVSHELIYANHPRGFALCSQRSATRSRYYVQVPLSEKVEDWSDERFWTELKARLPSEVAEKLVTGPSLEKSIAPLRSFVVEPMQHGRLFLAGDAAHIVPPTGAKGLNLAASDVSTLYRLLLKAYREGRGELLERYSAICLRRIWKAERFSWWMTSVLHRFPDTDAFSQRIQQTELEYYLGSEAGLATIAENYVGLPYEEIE
Description: A polynucleotide encoding Pseudomonas aeruginosa-derived PobA was artificially synthesized based on the gene sequence information of Pseudomonas aeruginosa-derived PobA (PaPobA) (SEQ ID NO: 14).

[4] = target: Hylemonella gracilis-derived PobA (HgPobA, SEQ ID NO: 20) variant HgPobA-TY, T302A/Y393F (gene SEQ ID NO: 37) (Hylemonella gracilis, UniProt F3KT36, T302A/Y393F); experiment: Reaction kinetic analysis of HgPobA-TY
Hylemonella gracilis-derived PobA (HgPobA, SEQ ID NO: 20) variant HgPobA-TY, T302A/Y393F (gene SEQ ID NO: 37), sequence (F3KT36 1-402 T302A/Y393F): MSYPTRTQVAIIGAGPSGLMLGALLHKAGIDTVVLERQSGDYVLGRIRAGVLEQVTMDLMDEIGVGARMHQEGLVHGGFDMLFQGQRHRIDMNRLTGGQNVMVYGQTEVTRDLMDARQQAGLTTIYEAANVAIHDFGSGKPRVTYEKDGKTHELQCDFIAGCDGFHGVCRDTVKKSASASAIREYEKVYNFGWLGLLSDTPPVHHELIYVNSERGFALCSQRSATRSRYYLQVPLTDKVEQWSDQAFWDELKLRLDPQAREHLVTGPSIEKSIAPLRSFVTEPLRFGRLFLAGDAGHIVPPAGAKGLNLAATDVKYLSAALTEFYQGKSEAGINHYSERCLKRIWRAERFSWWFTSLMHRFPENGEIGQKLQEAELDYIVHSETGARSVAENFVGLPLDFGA
Description: The cell-free extracts were subjected to a HisTrap HP column (GE healthcare) which was equilibrated with an equilibration buffer (20 mM Tris-HCl buffer (pH 7.9), 20 mM imidazole), and then fractions eluted with an eluent (20 mM Tris-HCl buffer (pH 7.9), 500 mM imidazole) were collected.
The protein concentrations of the purified enzyme liquids were measured using Bio-Rad Protein Assay Dye Reagent Concentrate (Bio-Rad, USA), and the purified enzyme liquids were diluted to 1 of mg/mL with a buffer.

[5] = read-out: Km^app (pHBA), pHBA substrate
[6] = PCA substrate, read-out: Km^app (PCA)

| Km [1, 5] | Km [2, 5] | Compound | kcat^app (PCA) ([1]; PCA substrate (2 mM)) | Km [1, 6] | kcat^app (PCA) ([2]; PCA substrate (2 mM)) | Km [2, 6] | kcat^app (PCA) [3] | kcat value for PCA relative to PaPobA ([4]; HgPobA-TY versus PaPobA) | kcat^app (PCA) ([4]; PCA substrate (2 mM), 200 µM NADPH, 10 µM FAD, pH 7.9, 25° C., 340 nm) |
| --- | --- | --- | --- | --- | --- | --- | --- | --- | --- |
| 340 µM | 56 µM | O=C(O)c1ccc(O)cc1 [pHBA, p-hydroxybenzoic acid] | – | – | – | – | – | – | – |
| – | – | O=C(O)c1ccc(O)c(O)c1 [PCA, protocatechuic acid] | 2.7 s⁻¹ | 920 µM | 6.6 s⁻¹ | 570 µM | 0.50 s⁻¹ | 3.6 times | 1.8 s⁻¹ |

— patent US20260103686A1, “MICROBIAL STRAIN, PROTEIN, AND METHOD FOR PRODUCING GALLIC ACID USING MICROBIAL STRAIN OR PROTEIN” (UNIVERSITY OF TSUKUBA, priority 2022, published 2026)
